Earlier results on one compound are cited in patent US8569271B2 (Laboratorios del Dr. Esteve, S.A., priority 2009, dated 2013).

With `Cc1ccc(-c2cc(C(F)(F)F)nn2-c2ccc(S(N)(=O)=O)cc2)cc1` [celecoxib, 4-[5-(4-methylphenyl)-3-(trifluoromethyl)-pyrazol-1-yl]-benzenesulfonamide], the solubility in water result was “only slightly soluble in water”.
